{
  "source": "patent US20100010024A1",
  "about": "“USE OF1,4-DIARYL-DIHYDROPYRIMIDINE-2-ON DERIVATIVES FOR TREATING PULMONARY ARTERIAL HYPERTENSION” (Bayer Healthcare AG, priority 2006, published 2010)",
  "data": [
    {"biological_target": "T1, human neutrophil elastase (HNE) (Homo sapiens, UniProt P08246)", "T1 construct": "purchased Serva, Heidelberg", "T1 sequence (P08246 30-267)": "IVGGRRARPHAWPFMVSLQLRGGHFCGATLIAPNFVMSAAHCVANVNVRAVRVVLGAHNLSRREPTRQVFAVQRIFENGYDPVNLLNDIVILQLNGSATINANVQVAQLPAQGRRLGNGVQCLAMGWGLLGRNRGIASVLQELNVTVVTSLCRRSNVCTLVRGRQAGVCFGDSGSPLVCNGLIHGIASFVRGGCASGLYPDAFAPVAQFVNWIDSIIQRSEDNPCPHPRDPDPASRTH", "experiment": "In vitro HNE inhibition assay", "type": "biochemical", "details": "80 pM HNE, 20 μM MeOSuc-Ala-Ala-Pro-Val-AMC, 37° C., 2 hours, fluorescence", "procedure": "B-1. In vitro HNE Inhibition Assay\nThe potency of the compounds of the invention is ascertained in an in vitro inhibition assay. The HNE-mediated amidolytic cleavage of a suitable peptide substrate leads in this connection to an increase in the fluorescent light. The signal intensity of the fluorescent light is directly proportional to the enzyme activity.\nEnzyme (80 pM HNE; from Serva, Heidelberg) and substrate (20 μM MeOSuc-Ala-Ala-Pro-Val-AMC; from Bachem, Weil am Rhein) are incubated in an assay volume of in total 50 μl of assay buffer (0.1 M HEPES pH 7.4, 0.5 M NaCl, 0.1% w/v BSA, 1% v/v DMSO) in a 384-well microtiter plate in the presence and absence of the test substance at 37° C. for 2 hours. […] The IC50 values are determined by plotting the intensity of the fluorescent light against the active substance concentration.", "units": {"IC50": "nM"}, "values": [
      {"smiles": "CC1=C(C(=O)OCCO)[C@@H](c2ccc(C#N)cc2)N(CC(N)=O)C(=O)N1c1cccc(C(F)(F)F)c1", "note": "[Example 29]", "IC50": 1.4},
      {"smiles": "CCOC(=O)C1=C(C)N(c2cccc(C(F)(F)F)c2)C(=O)N(CC(=O)N(C)C)[C@@H]1c1ccc(C#N)cc1", "note": "[Example 30, Ethyl(4R)-4-(4-cyanophenyl)-3-[2-(dimethylamino)-2-oxoethyl]-6-methyl-2-oxo-1-[3-(trifluoromethyl)phenyl]-1,2,3,4-tetrahydropyrimidine-5-carboxylate]", "IC50": 0.4},
      {"smiles": "CC(=O)C1=C(C)N(c2cccc(C(F)(F)F)c2)C(=O)N(Cc2ccc(C(=O)O)cc2)[C@@H]1c1ccc(C#N)cc1", "note": "[Example 18, 4-{[(6R)-5-Acetyl-6-(4-cyanophenyl)-4-methyl-2-oxo-3-[3-(trifluoromethyl)phenyl]-3,6-dihydropyrimidin-1(2H)-yl]methyl}benzoic acid]", "IC50": 2.9},
      {"smiles": "CC(=O)C1=C(C)N(c2ccc(F)c(C(F)(F)F)c2)C(=O)N[C@@H]1c1ccc(C#N)cc1", "note": "[Example 7, 4-{(4R)-5-Acetyl-1-[4-fluoro-3-(trifluoromethyl)phenyl]-6-methyl-2-oxo-1,2,3,4-tetrahydropyrimidin-4-yl}benzonitrile]", "IC50": 5.2},
      {"smiles": "CC1=C(C(=O)C2CCC2)[C@@H](c2ccc(C#N)cc2)NC(=O)N1c1cccc(C(F)(F)F)c1", "note": "[Example 3, 4-{(4R)-5-(Cyclobutylcarbonyl)-6-methyl-2-oxo-1-[3-(trifluoromethyl)phenyl]-1,2,3,4-tetrahydropyrimidin-4-yl}benzonitrile]", "IC50": 14.8},
      {"smiles": "CC1=C(C(=O)C2CCC2)[C@@H](c2ccc(C#N)cc2)N(CC(=O)O)C(=O)N1c1cccc(C(F)(F)F)c1", "note": "[Example 8, [(6R)-6-(4-Cyanophenyl)-5-(cyclobutylcarbonyl)-4-methyl-2-oxo-3-[3-(trifluoromethyl)phenyl]-3,6-dihydropyrimidin-1(2H)-yl]acetic acid]", "IC50": 4.3},
      {"smiles": "CC(=O)C1=C(C)N(c2cccc(C(F)(F)F)c2)C(=O)N(CC(N)=O)[C@@H]1c1ccc(C#N)cc1", "note": "[Example 21, 2-[(6R)-5-Acetyl-6-(4-cyanophenyl)-4-methyl-2-oxo-3-[3-(trifluoromethyl)phenyl]-3,6-dihydropyrimidine-1(2H)-yl]acetamide]", "IC50": 5.5},
      {"smiles": "CC(=O)C1=C(C)N(c2cccc(C(F)(F)F)c2)C(=O)N(Cc2cccc(C(=O)O)c2)[C@@H]1c1ccc(C#N)cc1", "note": "[Example 17, 3-{[(6R)-5-Acetyl-6-(4-cyanophenyl)-4-methyl-2-oxo-3-[3-(trifluoromethyl)phenyl]-3,6-dihydropyrimidin-1(2H)-yl]methyl}benzoic acid]", "IC50": 3.9},
      {"smiles": "CC1=C(C(=O)C(C)C)[C@@H](c2ccc(C#N)cc2)N(CC(=O)O)C(=O)N1c1cccc(C(F)(F)F)c1", "note": "[Example 16, [(6R)-6-(4-Cyanophenyl)-5-isobutyryl-4-methyl-2-oxo-3-[3-(trifluoromethyl)phenyl]-3,6-dihydropyrimidin-1(2H)-yl]acetic acid]", "IC50": 2.9}
    ]}
  ]
}
